Assay results as given in US20080214845A1, “ANTIBACTERIAL 6'-MODIFIED 4,5-SUBSTITUTED AMINOGLYCOSIDE ANALOGS” (priority 2005, published 2008).
Converted amounts (≈) assume the structure as drawn.

How the values were obtained:
18S = 18S Kd by FTICR mass spectrometry; assay type: binding
Procedure: (§1) Was performed according to the published report; […]-Lowery, […].; Mohan, […]. et al. Characterization of Low Affinity Complexes Between RNA and Small Molecules Using Electrospray Ionization Mass Spectrometry. J. Am. Chem. […] Screening is performed by measuring the formation of non-covalent complexes between a single ligand or ligand mixture and the appropriate RNA target, along with suitable control structured RNA target(s) simultaneously using a 9.4 T FT-ICR mass spectrometer as detector. Full experimental details of the assay have been described in related literature ([…]-Lowery, et al. in TrAC, Trends Anal. […] The abundances were integrated from the respective ions for free RNA and the ligand-RNA complex. […] The peak ratios are measured at each concentration, then a plot of complex/free RNA versus concentration of ligand added is fitted to a second (or higher) order binding polynomial to determine the KD.

16S = test: Measurement of 16S Kd by FTICR mass spectrometry; assay type: binding
Procedure: as §1

[1] = system: E. coli S30 bacterial extract (pBest Luc luciferase transcription/translation); test: Coupled bacterial transcription/translation assay (T/T); assay type: biochemical; settings: luciferase reporter, 35 minutes at 37° C., read-out: Trans/Trans IC50
Procedure: The DNA template, pBest Luc™ (Promega), is a plasmid containing a reporter gene for firefly luciferase fused to a strong tac promoter and ribosome binding site. Messenger RNA from 1 μg pBestLuc was transcribed and translated in E. coli S30 bacterial extract in the presence or absence of test compound. Compounds were tested in a black 96 well microtiter plate with an assay volume of […]. Each test well contained: 5 μL test compound, 13 μL S30 premix (Promega), 4 μL 10× complete amino acid mix (1 mM each), 5 μL E. coli S30 extract and 8 μL of 0.125 μg/μL pBest Luc™. The transcription/translation reaction was incubated for 35 minutes at 37° C. followed by detection of functional luciferase with the addition of 30 μL LucLite™ (Packard). Light output was quantitated on a Packard TopCount.

E. Coli. = test: Minimum inhibitory concentration (MIC), E. coli; assay type: cell-based; settings: range of concentration, 20-24 hours at 37° C., A595
Procedure: (§2) The assays are carried out in 150 μL volume in duplicate in 96-well clear flat-bottom plates. The bacterial suspension from an overnight culture growth in appropriate medium is added to a solution of test compound in 2.5% DMSO in water. Final bacterial inoculum is approximately 10^2-10^3 CFU/well. The percentage growth of the bacteria in test wells relative to that observed for a control wells containing no compound is determined by measuring absorbance at 595 nm (A595) after 20-24 hours at 37° C. The MIC is determined as a range of concentration where complete inhibition of growth is observed at the higher concentration and bacterial cells are viable at the lower concentration. Both ampicillin and tetracycline are used as antibiotic positive controls in each screening assay.

S. Aureus = test: Minimum inhibitory concentration (MIC), S. aureus; assay type: cell-based; settings: range of concentration, 20-24 hours at 37° C., A595
Procedure: as §2

[2] = system: Staphylococcus aureus (Smith strain ATCC 13709); test: Staphylococcus aureus mouse protection assay; assay type: in vivo; settings: Staph conc. 10^6 IP in 10% mucin, treatments at 1 hour and 3 hour post infection
Procedure: Two of the novel aminoglycoside compounds of the invention were examined for their anitbacterial activity against staphylococcus aureus. The mice were infected IP with 0.5 ml […] staphylococcus aureus in 10% mucin. There were 10 mice in each treated group with treatments at 1 hour and 3 hour post infection. The Ibis compounds (IBIS00561085 R4═R5═CH3 and IBIS00561141 R4═H, R5═(CH2)2C6H5) were used at 75 mg/kg, 37.5 mg/kg, 18.8 mg/kg, 9.4 mg/kg, 4.7 mg/kg, 2.3 mg/kg, 1.17 mg/kg and 0.5 mg/kg. Amakacin, Paromomycin and Neomycin were used as the positive controls at concentration of 2 mg/kg, 1 mg/kg and 0.5 mg/kg.

## CNC[C@H]1O[C@H](O[C@H]2[C@H](O[C@@H]3O[C@H](CO)[C@@H](O[C@H]4O[C@@H](CN)[C@@H](O)[C@H](O)[C@H]4N)[C@H]3O)[C@@H](O)[C@H](N)C[C@@H]2N)[C@H](N)[C@@H](O)[C@@H]1O [IBIS00560186]
18S
  Kd: 1.16 µM
16S
  Kd: 0.362 µM
[1]
  IC50: 0.159 µM
E. Coli.
  MIC E. Coli.: 2 to 3 µM
S. Aureus
  MIC S. Aureus: 2 to 3 µM

## COc1ccccc1CCNC[C@H]1O[C@H](O[C@H]2[C@H](O[C@@H]3O[C@H](CO)[C@@H](O[C@H]4O[C@@H](CN)[C@@H](O)[C@H](O)[C@H]4N)[C@H]3O)[C@@H](O)[C@H](N)C[C@@H]2N)[C@H](N)[C@@H](O)[C@@H]1O [IBIS00561935]
E. Coli.
  MIC E. Coli.: 1.25 to 2.5 µM
S. Aureus
  MIC S. Aureus: 0.31 to 0.62 µM

## NCCCNC[C@H]1O[C@H](O[C@H]2[C@H](O[C@@H]3O[C@H](CO)[C@@H](O[C@H]4O[C@@H](CN)[C@@H](O)[C@H](O)[C@H]4N)[C@H]3O)[C@@H](O)[C@H](N)C[C@@H]2N)[C@H](N)[C@@H](O)[C@@H]1O [IBIS00561096]
18S
  Kd: 1.45 µM
16S
  Kd: 1.59 µM
[1]
  IC50: 0.175 µM
E. Coli.
  MIC E. Coli.: 2.5 to 5.0 µM
S. Aureus
  MIC S. Aureus: 1.25 to 2.5 µM

## Neomycin
[2]; 0.5 mg/kg
  # Dead mice/Total mice in group: 7/10 (10% Mucin)
[2]; 1 mg/kg
  # Dead mice/Total mice in group: 10/10 (10% Mucin)
[2]; 2 mg/kg
  # Dead mice/Total mice in group: 4/10 (10% Mucin)

## NC[C@@H]1O[C@H](O[C@H]2[C@@H](O)[C@H](O[C@@H]3[C@@H](O)[C@H](N)C[C@H](N)[C@H]3O[C@H]3O[C@H](CNCCc4cccc(C(F)(F)F)c4)[C@@H](O)[C@H](O)[C@H]3N)O[C@@H]2CO)[C@H](N)[C@@H](O)[C@@H]1O [IBIS00561943]
E. Coli.; Escherichia coli
  MIC: 0.6 to 1.2 µM (≈ 0.472 to 0.944 µg/mL)
S. Aureus; Staphylococcus aureus
  MIC: 0.16 to 0.31 µM (≈ 0.126 to 0.244 µg/mL)

## NC[C@@H]1O[C@H](O[C@H]2[C@@H](O)[C@H](O[C@@H]3[C@@H](O)[C@H](N)C[C@H](N)[C@H]3O[C@H]3O[C@H](CNCCc4ccc(F)cc4)[C@@H](O)[C@H](O)[C@H]3N)O[C@@H]2CO)[C@H](N)[C@@H](O)[C@@H]1O [IBIS00561944]
E. Coli.
  MIC E. Coli.: 0.6 to 1.2 µM
S. Aureus
  MIC S. Aureus: 0.16 to 0.31 µM

## NCC1OC(OC2C(CO)OC(OC3C(O)C(N)CC(N)C3OC3OC(CNCC(O)c4ccccc4)C(O)C(O)C3N)C2O)C(N)C(O)C1O (stereo not drawn) [IBIS00561937]
E. Coli.
  MIC E. Coli.: 5.0 to 10.0 µM
S. Aureus
  MIC S. Aureus: 0.6 to 1.2 µM

## CN(CCc1ccccc1)C[C@H]1O[C@H](O[C@H]2[C@H](O[C@@H]3O[C@H](CO)[C@@H](O[C@H]4O[C@@H](CN)[C@@H](O)[C@H](O)[C@H]4N)[C@H]3O)[C@@H](O)[C@H](N)C[C@@H]2N)[C@H](N)[C@@H](O)[C@@H]1O [IBIS00561931]
E. Coli.
  MIC E. Coli.: 2.5 to 5.0 µM
S. Aureus
  MIC S. Aureus: 0.31 to 0.62 µM

## NC[C@@H]1O[C@H](O[C@H]2[C@@H](O)[C@H](O[C@@H]3[C@@H](O)[C@H](N)C[C@H](N)[C@H]3O[C@H]3O[C@H](CO)[C@@H](O)[C@H](O)[C@H]3N)O[C@@H]2CO)[C@H](N)[C@@H](O)[C@@H]1O [Paromomycin]
[2]; 0.5 mg/kg
  # Dead mice/Total mice in group: 10/10 (10% Mucin)
[2]; 1 mg/kg
  # Dead mice/Total mice in group: 10/10 (10% Mucin)
[2]; 2 mg/kg
  # Dead mice/Total mice in group: 9/10 (10% Mucin)

## NCC1OC(OC2C(CO)OC(OC3C(O)C(N)CC(N)C3OC3OC(CNCCc4c[nH]c5ccccc45)C(O)C(O)C3N)C2O)C(N)C(O)C1O (stereo not drawn) [IBIS00561940]
E. Coli.
  MIC E. Coli.: 1.25 to 2.5 µM
S. Aureus
  MIC S. Aureus: 1.25 to 2.5 µM

## CC(C)(C)OC(=O)NNC[C@H]1O[C@H](O[C@H]2[C@H](O[C@@H]3O[C@H](CO)[C@@H](O[C@H]4O[C@@H](CN)[C@@H](O)[C@H](O)[C@H]4N)[C@H]3O)[C@@H](O)[C@H](N)C[C@@H]2N)[C@H](N)[C@@H](O)[C@@H]1O [IBIS00561082]
18S
  Kd: 1.35 µM
16S
  Kd: 0.0149 µM
[1]
  IC50: 0.308 µM
E. Coli.
  MIC E. Coli.: 6 to 12 µM
S. Aureus
  MIC S. Aureus: 12 to 25 µM
